Target: T1, human recombinant HDAC6 (Homo sapiens, UniProt Q9UBN7)
T1 construct: purchased Calbiochem 382180
T1 sequence (Q9UBN7 1-1215): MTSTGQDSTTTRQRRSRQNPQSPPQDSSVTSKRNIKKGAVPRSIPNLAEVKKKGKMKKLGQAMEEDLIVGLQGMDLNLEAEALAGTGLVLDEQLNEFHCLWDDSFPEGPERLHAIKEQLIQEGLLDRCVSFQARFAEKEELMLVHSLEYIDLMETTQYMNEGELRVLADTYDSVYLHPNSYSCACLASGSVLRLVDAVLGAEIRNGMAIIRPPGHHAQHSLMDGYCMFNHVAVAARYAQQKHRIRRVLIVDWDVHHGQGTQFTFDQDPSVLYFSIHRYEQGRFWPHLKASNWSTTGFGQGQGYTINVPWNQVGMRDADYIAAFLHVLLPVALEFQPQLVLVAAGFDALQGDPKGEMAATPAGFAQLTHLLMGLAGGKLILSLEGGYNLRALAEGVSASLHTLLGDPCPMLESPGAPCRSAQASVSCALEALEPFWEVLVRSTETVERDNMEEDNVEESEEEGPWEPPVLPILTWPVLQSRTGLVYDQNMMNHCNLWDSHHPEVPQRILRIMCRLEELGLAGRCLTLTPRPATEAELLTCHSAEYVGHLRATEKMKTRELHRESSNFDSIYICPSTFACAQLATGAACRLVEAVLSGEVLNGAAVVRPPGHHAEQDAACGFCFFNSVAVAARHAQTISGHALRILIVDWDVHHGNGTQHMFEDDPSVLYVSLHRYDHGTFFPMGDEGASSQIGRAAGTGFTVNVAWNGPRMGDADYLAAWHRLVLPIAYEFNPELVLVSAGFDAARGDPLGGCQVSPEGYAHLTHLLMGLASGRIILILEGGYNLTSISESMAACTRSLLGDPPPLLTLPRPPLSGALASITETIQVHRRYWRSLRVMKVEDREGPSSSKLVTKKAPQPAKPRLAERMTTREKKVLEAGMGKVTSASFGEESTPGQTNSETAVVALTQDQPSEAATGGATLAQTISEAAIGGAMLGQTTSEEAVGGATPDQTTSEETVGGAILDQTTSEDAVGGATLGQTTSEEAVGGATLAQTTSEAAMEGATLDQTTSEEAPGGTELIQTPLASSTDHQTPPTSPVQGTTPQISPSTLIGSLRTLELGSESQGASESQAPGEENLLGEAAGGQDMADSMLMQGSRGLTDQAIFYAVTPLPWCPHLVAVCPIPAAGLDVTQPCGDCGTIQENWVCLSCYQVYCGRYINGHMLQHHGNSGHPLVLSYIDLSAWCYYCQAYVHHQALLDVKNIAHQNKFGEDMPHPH
Test: HDAC6 enzyme activity inhibition assay (HDAC Fluorimetric Drug Discovery Kit)
Format: biochemical
Conditions: for HDAC6 selectivity (fold): HDAC1 vs HDAC6; for IC50: same protocol as the HDAC1 enzyme activity test
Method in brief: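 First, compound in 5-fold dilution steps is combined with 0.3 μg enzyme and 10 μM Fluor de Lys-SIRT1 substrate. After 60 min at 30° C, developer is added for 30 min. Fluorescence at Ex 360/Em 460 then gives IC50 values.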

SMILES | HDAC6 selectivity (fold) | IC50 [µM]
CCN(CCS(=O)(=O)N(Cc1ccc(-c2nnc(C(F)F)o2)cc1)c1ccccc1)Cc1ccccc1 [Compound 11765, 2-(benzyl(ethyl)amino)-N-(4-(5-(difluoromethyl)-1,3,4-oxadiazol-2-yl)benzyl)-N-phenylethane-1-sulfonamide] | 526 | 0.19
O=S(=O)(CCN1CCN(c2ccccc2)CC1)N(Cc1ccc(-c2nnc(C(F)F)o2)cc1)c1ccccc1 [Compound 11766, N-(4-(5-(difluoromethyl)-1,3,4-oxadiazol-2-yl)benzyl)-N-phenyl-2-(4-phenylpiperazin-1-yl)ethane-1-sulfonamide] | 319 | 0.313
O=S(=O)(CCN1CCN(c2ccccn2)CC1)N(Cc1ccc(-c2nnc(C(F)F)o2)cc1)c1ccccc1 [Compound 11767, N-(4-(5-(difluoromethyl)-1,3,4-oxadiazol-2-yl)benzyl)-N-phenyl-2-(4-(pyridin-2-yl)piperazin-1-yl)ethane-1-sulfonamide] | 844 | 0.118
O=S(=O)(CCN1CCN(c2ccncc2)CC1)N(Cc1ccc(-c2nnc(C(F)F)o2)cc1)c1ccccc1 [Compound 11768, N-(4-(5-(difluoromethyl)-1,3,4-oxadiazol-2-yl)benzyl)-N-phenyl-2-(4-(pyridin-4-yl)piperazin-1-yl)ethane-1-sulfonamide] | 2610 | 0.0383
O=S(=O)(CCN1CCN(c2ccc(F)cc2)CC1)N(Cc1ccc(-c2nnc(C(F)F)o2)cc1)c1ccccc1 [Compound 11769, N-(4-(5-(difluoromethyl)-1,3,4-oxadiazol-2-yl)benzyl)-2-(4-(4-fluorophenyl)piperazin-1-yl)-N-phenylethane-1-sulfonamide] | 359 | 0.278
O=S(=O)(CCN1CCN(c2ccc(Cl)c(Cl)c2)CC1)N(Cc1ccc(-c2nnc(C(F)F)o2)cc1)c1ccccc1 [Compound 11770, 2-(4-(3,4-dichlorophenyl)piperazin-1-yl)-N-(4-(5-(difluoromethyl)-1,3,4-oxadiazol-2-yl)benzyl)-N-phenylethane-1-sulfonamide] | 112 | 0.886
O=S(=O)(CCN1CCN(CCc2ccccc2)CC1)N(Cc1ccc(-c2nnc(C(F)F)o2)cc1)c1ccccc1 [Compound 11771, N-(4-(5-(difluoromethyl)-1,3,4-oxadiazol-2-yl)benzyl)-2-(4-phenethylpiperazin-1-yl)-N-phenylethane-1-sulfonamide] | 311 | 0.321
O=S(=O)(CCN1CCN(CCc2ccncc2)CC1)N(Cc1ccc(-c2nnc(C(F)F)o2)cc1)c1ccccc1 [Compound 11772, N-(4-(5-(difluoromethyl)-1,3,4-oxadiazol-2-yl)benzyl)-N-phenyl-2-(4-(2-(pyridin-4-yl)ethyl)piperazin-1-yl)ethane-1-sulfonamide] | 2057 | 0.0486
O=S(=O)(CCN1CCN(C/C=C/c2ccccc2)CC1)N(Cc1ccc(-c2nnc(C(F)F)o2)cc1)c1ccccc1 [Compound 11773, 2-(4-cinnamylpiperazin-1-yl)-N-(4-(5-(difluoromethyl)-1,3,4-oxadiazol-2-yl)benzyl)-N-phenylethane-1-sulfonamide] | 370 | 0.27
CS(=O)(=O)N(Cc1ccc(-c2nnc(C(F)F)o2)cc1F)c1ccc2ncoc2c1 [Compound 11774, N-(benzo[d]oxazol-6-yl)-N-(4-(5-(difluoromethyl)-1,3,4-oxadiazol-2-yl)-2-fluorobenzyl)methanesulfonamide] | 1503 | 0.0665
CS(=O)(=O)N(Cc1ccc(-c2nnc(C(F)F)o2)cc1F)c1ccc2ncsc2c1 [Compound 11775, N-(benzo[d]thiazol-6-yl)-N-(4-(5-(difluoromethyl)-1,3,4-oxadiazol-2-yl)-2-fluorobenzyl)methanesulfonamide] | 2906 | 0.0344
CS(=O)(=O)N(Cc1ccc(-c2nnc(C(F)F)o2)cc1F)c1nncs1 [Compound 11776, N-(4-(5-(difluoromethyl)-1,3,4-oxadiazol-2-yl)-2-fluorobenzyl)-N-(1,3,4-thiadiazol-2-yl)methanesulfonamide] | 113 | 0.882
CCN1CC(N2CCC(S(=O)(=O)N(Cc3ccc(-c4nnc(C(F)F)o4)cc3)c3cccc(Cl)c3)CC2)C1 [Compound 11777, N-(3-chlorophenyl)-N-(4-(5-(difluoromethyl)-1,3,4-oxadiazol-2-yl)benzyl)-1-(1-ethylazetidin-3-yl)piperidine-4-sulfonamide] | 3472 | 0.0288
CC(C)N1CC(N2CCC(S(=O)(=O)N(Cc3ccc(-c4nnc(C(F)F)o4)cc3)c3cccc(Cl)c3)CC2)C1 [Compound 11778, N-(3-chlorophenyl)-N-(4-(5-(difluoromethyl)-1,3,4-oxadiazol-2-yl)benzyl)-1-(1-isopropylazetidin-3-yl)piperidine-4-sulfonamide] | 2724 | 0.0367
CC(=O)N1CC(N2CCC(S(=O)(=O)N(Cc3ccc(-c4nnc(C(F)F)o4)cc3)c3cccc(Cl)c3)CC2)C1 [Compound 11779, 1-(1-acetylazetidin-3-yl)-N-(3-chlorophenyl)-N-(4-(5-(difluoromethyl)-1,3,4-oxadiazol-2-yl)benzyl)piperidine-4-sulfonamide] | 2493 | 0.0401
CCC(=O)N1CC(N2CCC(S(=O)(=O)N(Cc3ccc(-c4nnc(C(F)F)o4)cc3)c3cccc(Cl)c3)CC2)C1 [Compound 11780, N-(3-chlorophenyl)-N-(4-(5-(difluoromethyl)-1,3,4-oxadiazol-2-yl)benzyl)-1-(1-propionylazetidin-3-yl)piperidine-4-sulfonamide] | 1893 | 0.0528
CC(C)N1CC(N2CCC(S(=O)(=O)N(Cc3ccc(-c4nnc(C(F)F)o4)cn3)c3cccc(Cl)c3)CC2)C1 [Compound 11781, N-(3-chlorophenyl)-N-((5-(5-(difluoromethyl)-1,3,4-oxadiazol-2-yl)pyridin-2-yl)methyl)-1-(1-isopropylazetidin-3-yl)piperidine-4-sulfonamide] | 5319 | 0.0188
CCC(=O)N1CC(N2CCC(S(=O)(=O)N(Cc3ccc(-c4nnc(C(F)F)o4)cn3)c3cccc(Cl)c3)CC2)C1 [Compound 11782, N-(3-chlorophenyl)-N-((5-(5-(difluoromethyl)-1,3,4-oxadiazol-2-yl)pyridin-2-yl)methyl)-1-(1-propionylazetidin-3-yl)piperidine-4-sulfonamide] | 4032 | 0.0248
O=C(C1CC1)N1CC(N2CCC(S(=O)(=O)N(Cc3ccc(-c4nnc(C(F)F)o4)cc3)c3cccc(Cl)c3)CC2)C1 [Compound 11783, N-(3-chlorophenyl)-1-(1-(cyclopropanecarbonyl)azetidin-3-yl)-N-(4-(5-(difluoromethyl)-1,3,4-oxadiazol-2-yl)benzyl)piperidine-4-sulfonamide] | 1440 | 0.0694

Reference: patent US10538498B2, “1,3,4-oxadiazole sulfonamide derivative compounds as histone deacetylase 6 inhibitor, and the pharmaceutical composition comprising the same” (Chong Kun Dang Pharmaceutical Corp., priority 2015, dated 2020)
